The values below come from ChEMBL document CHEMBL3507680, “University of Dundee, Gates Library screen for HepG2 cell viability”.

A short description of the data set: Human HepG2 cell viability assay in 384 well format. Further details: dose 125 nL, time 70.5 hour; cytotoxicity at 70.5 h: concentration not given beside the values. The format is toxicity, cell-based. The conditions noted are these: HepG2 cells, read-out: Inhibition.

As to `O=C(CCc1ccncc1)N1CCc2c(ncnc2N2CCOCC2)C1`, the cytotoxicity at 70.5 h is 31.1%. As to `Cc1cccc(CN2CCC(n3cc(CCO)nn3)CC2)c1C`, the cytotoxicity at 70.5 h was 2.7%. For the compound `Fc1ccccc1CC1CCN(Cc2cscn2)CC1`, the cytotoxicity at 70.5 h is -4.53%. As for `O=C(Cn1ncc(N2CCCC2)cc1=O)Nc1ccc2nccnc2c1`, the cytotoxicity at 70.5 h is -3.43%.

On to `O=C(CCC(F)(F)F)N1CCCC2(CCC(=O)N(CC3CC3)C2)C1` (stereo not drawn), for which the cytotoxicity at 70.5 h was -15.8%. For `Cc1cc(C)c(C(=O)NC2CCCc3nc(N(C)C)ncc32)cc1C` (stereo not drawn) the value was 23.6%; for `COc1ccc(CCN)cc1-c1ccc(C(N)=O)cc1`, -6.83%; for `CC(C)CN1CC(c2nc(C3CC3)n[nH]2)CC1=O` (stereo not drawn), -9.82%. For `COc1ccc2ncn(Cc3ncc[nH]3)c(=O)c2c1` the value was 2.5%.

With `CN(Cc1ccccn1)C(=O)c1cc(CN2CCC(O)CC2)on1`, the cytotoxicity at 70.5 h was -16.8%.

For the compound `Cc1ccnc(CNC(=O)C2CC(=O)N(CCN(C)C)C2)c1` (stereo not drawn), the cytotoxicity at 70.5 h was -7.06%.

For the compound `CN1C[C@@H]2CC[C@H](C1)N(Cc1ccccc1OCCN1CCOCC1)C2`, the cytotoxicity at 70.5 h was found to be 1.83%.

Consider `CCc1ccccc1OC1CN(C(=O)c2cccs2)C1`, for which the cytotoxicity at 70.5 h was found to be 7.24%. For `COc1ccc(OC2CCN(C(=O)c3ccc(C(C)=O)s3)CC2)cc1`, the cytotoxicity at 70.5 h was -6.92%. With `CCC(=O)c1ccc(OCC(=O)N2CCNCC2C(=O)NC2CC2)cc1` (stereo not drawn), the cytotoxicity at 70.5 h is -9.05%. For `Cc1cccc(-c2nc(N)nc3c2CN(C(=O)c2cc(C)n[nH]2)C3C)c1` (stereo not drawn), the cytotoxicity at 70.5 h was -13.9%. In the case of `O=C(c1ccccn1)N1C[C@@H]2CC[C@H](C1)N(C(=O)CCN1CCCC1)C2`, the cytotoxicity at 70.5 h turned out to be 38%. `O=C(Cn1ccc2ncccc2c1=O)N1CCCCC1`: the cytotoxicity at 70.5 h stood at 13.3%. For `CCOC(=O)N1CCN(C(=O)Cn2ccc3ncccc3c2=O)CC1` the value was -8.19%. As for `Cc1cc(N2CCCN(C(=O)Cc3cccnc3)CC2)ccn1`, the cytotoxicity at 70.5 h was -6.53%.

Turning to `Cn1cnnc1SCC(=O)NC1CC(=O)N(CCc2cccc(Cl)c2)C1` (stereo not drawn), the cytotoxicity at 70.5 h is -7.55%.

For the compound `CC(C1CCN(Cc2ccc(N(C)C)nc2)CC1)N1CCOCC1` (stereo not drawn), the cytotoxicity at 70.5 h was found to be 8.61%. For `CC(C)CCn1cc(C(C(=O)O)N2CCC(c3ccncc3)CC2)cn1` (stereo not drawn), the cytotoxicity at 70.5 h turned out to be 19.8%. As to `CCCc1cc(C(=O)N2CCC3(CCCN(CCOC)C3=O)C2)cs1` (stereo not drawn), the cytotoxicity at 70.5 h was -7.15%.

As to `Cc1cc(NCCCC(F)(F)F)n2nc(C)cc2n1`, the cytotoxicity at 70.5 h was -1.87%. Take `O=C(CC(F)(F)F)N1C[C@H]2CC[C@@H]1CN(Cc1ccccc1)C2`: the cytotoxicity at 70.5 h was -3.61%. For `O=C1CCC2(CCN(CCSc3ccccc3)CC2)CN1CCCO` the value was -1.81%. On to `Cc1ccc(S(=O)(=O)N2CCC(Cn3cc(C(C)(C)N)nn3)CC2)s1`, for which the cytotoxicity at 70.5 h is -6.09%. For `CC(C)CN1CCn2nc(CNc3ncnc4[nH]cnc34)cc2C1` the value was 10.6%; for `Cc1cnc(N2CCC(c3ccccc3)CC2)nc1-c1ccnn1C`, -6.13%. For `CC(=O)Nc1ccc(C(=O)Nc2cnc3n2CCCC3)c(C)c1`, the cytotoxicity at 70.5 h is -1.77%. Regarding `O=C(c1cccc(F)c1)N1C[C@@H](CN2CCCCC2)[C@@H](CO)C1`, the cytotoxicity at 70.5 h is -7.48%. With `CC(C)[C@@H]1CN(Cc2cnc3c(S(C)(=O)=O)cnn3c2)C[C@H]1N(C)C`, the cytotoxicity at 70.5 h was -7.81%.

Consider `CN(C)CCNc1cc(-c2ncccn2)c2cc[nH]c2n1`, for which the cytotoxicity at 70.5 h was -6.11%. Consider `O=C(CNC(Cn1cccn1)c1ccccc1)Nc1cnccn1` (stereo not drawn), for which the cytotoxicity at 70.5 h turned out to be 13%.

Turning to `CCC[C@@H]1CN(C(=O)c2conc2-c2ccccc2)C[C@H]1N(C)C`, the cytotoxicity at 70.5 h was 0.694%.

As to `O=C(NCCCNc1cccnc1)c1ccc2nccn2c1`, the cytotoxicity at 70.5 h is -12.7%. On to `Cc1cc(NCc2noc(C(C)C)n2)nc(-c2ccccc2)n1`, for which the cytotoxicity at 70.5 h was determined as 12.1%. As for `Cc1ncc(C)c(N2CCC(Cc3ccc(Cl)cc3)(C(=O)O)CC2)n1`, the cytotoxicity at 70.5 h was -9.85%. `Cc1nc(C)c(CC(=O)N2C[C@@H](C(=O)O)[C@H](c3ccccc3C)C2)s1`: the cytotoxicity at 70.5 h was -17%. Turning to `COCCN1CCC(CN(Cc2ccncc2)C2CCC2)CC1`, the cytotoxicity at 70.5 h was -6.79%. As to `CCC[C@@H]1CN(C(=O)Cc2sc(C)nc2C)C[C@H]1C(=O)O`, the cytotoxicity at 70.5 h was -5.07%. `COCC1CCN(S(=O)(=O)N2C[C@@H](C)[C@](O)(C3CC3)C2)CC1`: the cytotoxicity at 70.5 h was -1.25%. The value for `CCOCc1nc2c(c(N(C)Cc3ccsc3)n1)CCNCC2` was -3.56%; that for `COc1cccc2c(=O)n(Cc3cc(C4CC4)[nH]n3)cnc12` was 0.602%; that for `COCCN(Cc1sccc1C)Cc1nccn1CCOC` was -4.3%. Consider `COC[C@]1(O)CCN(Cc2c[nH]c(CC3CCCC3)n2)CC1(C)C`, for which the cytotoxicity at 70.5 h stood at 30.4%. Consider `CC(O)CN1CCc2[nH]nc(C(c3ccccc3)c3ccccc3)c2C1` (stereo not drawn), for which the cytotoxicity at 70.5 h was -5.7%. As to `O=C1C[C@H]2CC[C@@H](CN1)N2c1cc(-c2ccccc2F)nc2ccnn12`, the cytotoxicity at 70.5 h was -4%. For `CCc1nc(C)c(-c2nccn2CC2CC(=O)N(CC)C2)[nH]1` (stereo not drawn), the cytotoxicity at 70.5 h is 1.63%. For `Cc1ccc([C@H]2CN(CCO)C[C@@H]2NC(=O)CN2CCCCC2=O)o1` the value was -11%; for `Cc1n[nH]c(C)c1CCN(C)C(=O)c1ccc(CCC(C)(C)O)cc1`, -3.14%; for `Cc1ncsc1CN1CCn2nc(CCC(=O)N3CCCC3)cc2C1`, -6.96%. As to `CCc1cc(NCc2cc(CC(C)C)on2)n2nccc2n1`, the cytotoxicity at 70.5 h is -2.02%.

As for `Cc1ncsc1CCN(C)C(=O)CN1CC2(CCCC2)CC1=O`, the cytotoxicity at 70.5 h was -15%.

As for `Cc1csc(CCNC(=O)C2CCCN(C3CCOCC3)C2)n1` (stereo not drawn), the cytotoxicity at 70.5 h was -11.1%.

On to `Cc1nc2c(c(NCC(c3ccccc3C)N(C)C)n1)CCNC2` (stereo not drawn), for which the cytotoxicity at 70.5 h is 25.9%. In the case of `COc1cc(-c2nccn2CCn2cccn2)cc2c1OCO2`, the cytotoxicity at 70.5 h is -1.97%. For `Cc1ccc(C(C(=O)NCc2n[nH]c(N)n2)N(C)C)cc1` (stereo not drawn), the cytotoxicity at 70.5 h is -5.83%.

In the case of `Cc1cc(C)n2nc(CC(=O)N3CC[C@H]4NCCC[C@]4(CO)C3)nc2n1`, the cytotoxicity at 70.5 h was -3.3%. The value for `CCn1c(-c2ccccc2)nn(CC(=O)NCCc2ccc(C)o2)c1=O` was -0.836%; that for `CC(O)c1cccc(N2CCC3(CCC(=O)N(C4CCCC4)C3)CC2)n1` (stereo not drawn) was -2.86%. As for `CCOC(=O)CNc1nc(C(C)(C)C)nc2c1cnn2C`, the cytotoxicity at 70.5 h worked out at 1.33%.

With `CCC(CC)N(Cc1ccc2c(c1)OCO2)C(=O)c1ccc(=O)n(C)c1`, the cytotoxicity at 70.5 h was -1.82%. Regarding `O=C1NC2(CCN(C(=O)c3ccc(Cl)cc3)CC2)CC1c1ccccc1` (stereo not drawn), the cytotoxicity at 70.5 h was 20.8%. In the case of `Cc1cc(F)ccc1-c1cc(NCCO)nc2[nH]ccc12`, the cytotoxicity at 70.5 h came to 0.963%. Take `CCCN1CCCC2(CCN(c3nc(C)nc4ccsc34)C2)C1=O` (stereo not drawn): the cytotoxicity at 70.5 h was -3.49%. For `CCc1ccc(OCCN(C)C(=O)c2ccncc2Cl)cc1` the value was -5.33%; for `Cc1nnc(CCNC(=O)C(c2ccc(F)cc2)N(C)C)[nH]1` (stereo not drawn), 25%. Consider `Cn1ncc2c(N3CCCC(C)(O)C3)nc(-c3cccnc3)nc21` (stereo not drawn), for which the cytotoxicity at 70.5 h was 9.87%. Regarding `CCc1nc(N2CCC3(CC2)[C@H](O)C[C@@H]3O)ncc1C`, the cytotoxicity at 70.5 h was -5.93%. With `CN(Cc1nncn1C)c1nccc(C2CCCC2)n1`, the cytotoxicity at 70.5 h was found to be 6.4%. Regarding `CCOc1ccc(CN2CCC3(CC2)CNC(=O)C3)cn1`, the cytotoxicity at 70.5 h is -1.37%. Take `COCC(NC1CCSCC1)c1ccnn1C` (stereo not drawn): the cytotoxicity at 70.5 h turned out to be 21.8%.

Consider `C[C@@H]1CN(C(=O)C2(Cn3cccn3)CC2)C[C@@]1(O)C1CCC1`, for which the cytotoxicity at 70.5 h is -0.77%. For `CSCc1ccc(N2CCC(C(O)CC(C)C)CC2)nc1` (stereo not drawn) the value was 6.44%. As to `COc1cccc(-c2n[nH]c3c2CN(C(=O)c2cc(C)n(C)n2)CC3)c1`, the cytotoxicity at 70.5 h was -7.15%.

With `Cc1cn(CCn2ccnc2-c2sccc2C)nn1`, the cytotoxicity at 70.5 h was -2.5%. As for `Cc1cc(C(=O)N2CC[C@](C)(O)[C@H](C)C2)c(C)n1C`, the cytotoxicity at 70.5 h is 18.2%. Regarding `CCN(Cc1cc(Cl)ccc1OC)Cc1nccn1C`, the cytotoxicity at 70.5 h is 12.7%. For `CCc1nnc(CNC(=O)c2cc3c(nc2OC)CCC3)s1` the value was 2.77%; for `Cc1ccc(CN2CCN(c3cc(NCCO)ncn3)CC2CCO)o1` (stereo not drawn), -5.58%; for `COc1nc2ccn(CCc3cnccn3)c(=O)c2cc1C#N`, 40.2%. In the case of `Clc1cc(NCc2ncc[nH]2)nc2[nH]ccc12`, the cytotoxicity at 70.5 h was -6.45%. In the case of `COCCN1CC2(CCC1=O)CCN(Cc1cc(F)ccc1Cl)CC2`, the cytotoxicity at 70.5 h was 6.46%. The value for `Cc1cc2nc(-c3cn(C4CCNCC4)nn3)[nH]c2cc1C` was -2.26%; that for `Cc1cccc(Cn2nc(C3CCNCC3)n(-c3ccccc3)c2=O)c1` was -5.91%. Take `COc1ccc2c(c1)OCC(CNC(=O)c1cnc(NC(C)C)nc1)C2` (stereo not drawn): the cytotoxicity at 70.5 h is 12.5%. As to `CCc1cnc(N2CCOC(CCOC)C2)nc1` (stereo not drawn), the cytotoxicity at 70.5 h was -13.5%. `O=S(=O)(N1CCOCC1)N1CCOC(CCc2ccccc2)C1` (stereo not drawn): the cytotoxicity at 70.5 h was -4.48%. `COc1ccccc1CCN1CCCC(CN(C)Cc2ccc(C)o2)C1` (stereo not drawn): the cytotoxicity at 70.5 h is -8.57%. The value for `NCC1CN(Cc2cn(CCC(N)=O)c3ccccc23)CCO1` (stereo not drawn) was 2.17%; that for `COCc1ncc(-c2nccn2CCn2cnnc2)cn1` was -2.42%; that for `Cc1nc(N)nc(N2CCOc3ccc(CO)cc3C2)c1C` was 25.5%. In the case of `Cc1cnn(CC(=O)N2CCC3(CCC(=O)N(C4CCCC4)C3)CC2)c1`, the cytotoxicity at 70.5 h was -2.24%. The value for `CCn1ccnc1CNc1nccc(-c2c(C)nn(C)c2C)n1` was -15.1%. `CCN(Cc1cc(F)c(OC)c(Cl)c1)Cc1noc(CC(C)C)n1`: the cytotoxicity at 70.5 h was -10.5%. `c1[nH]c(CC2CCCC2)nc1CN1CCCC2(CCOC2)C1` (stereo not drawn): the cytotoxicity at 70.5 h is -8.93%.
